Experiments:
[1] = target: T1, OR5AN1 (Homo sapiens, UniProt Q8NGI8); experiment: Luciferase reporter gene assay, OR5AN1-expressing HEK293 cells; assay type: cell-based
T1 construct: expressed in transfected cells; host or cells: HEK293
T1 sequence (Q8NGI8 1-311): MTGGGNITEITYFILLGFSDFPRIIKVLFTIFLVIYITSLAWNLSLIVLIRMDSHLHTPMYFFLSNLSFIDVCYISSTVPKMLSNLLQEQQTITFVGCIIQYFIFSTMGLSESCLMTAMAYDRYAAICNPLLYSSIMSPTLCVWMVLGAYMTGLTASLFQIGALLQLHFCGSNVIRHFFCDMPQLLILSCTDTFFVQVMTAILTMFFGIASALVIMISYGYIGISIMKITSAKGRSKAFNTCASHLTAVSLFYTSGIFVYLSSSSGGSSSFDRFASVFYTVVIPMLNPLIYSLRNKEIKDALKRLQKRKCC
From the text: On the basis of sequence information registered in GenBank, genes respectively encoding 370 human olfactory receptors shown in Tables 1-1 and 1-2 and genes respectively encoding the human olfactory receptors OR5AN1, OR10G4 and OR9Q2 (respectively set forth in SEQ ID NOS: 1, 3 and 5) were cloned. Each of the genes was cloned by the PCR using human genomic DNA person (G1521: Promega) as a template. Each gene amplified by the PCR was incorporated into a pENTR vector (Invitrogen) in accordance with the instruction, and was recombined to NotI and AscI sites produced downstream from a Flag-Rho tag sequence on a pME18S vector by using NotI and AscI sites present on the pENTR vector.
In 1) of Example 1, HEK293 cells on which the 370 human olfactory receptors were respectively expressed were produced. A reaction solution having a composition shown in Table 2 was prepared and allowed to stand still in a clean bench for 15 minutes, and the resultant was added by 4.4 μL per well in a 384-well plate (BioCoat). Subsequently, the HEK293 cells (20×10^4 cells/cm^2) were seeded by 40 μL per well, and the resultant was cultured for 24 hours in an incubator kept at 37° C. and 5% CO2.
In 2) of Example 1 and Examples 2 and 3, HEK293 cells in which the human olfactory receptor OR5AN1, OR10G4, OR9Q2 or OR1A1 was expressed were produced. A reaction solution having a composition shown in Table 3 was prepared and allowed to stand still in a clean bench for 15 minutes, and the resultant was added by 10 μL per well in a 96-well plate (BioCoat). Subsequently, the HEK293 cells (3×10^5 cells/cm^2) were seeded by 90 μL per well, and the resultant was cultured for 24 hours in an incubator kept at 37° C. and 5% CO2. Cells obtained under conditions for not expressing the olfactory receptor (Mock) were also prepared to be used as a control, and were used similarly in an experiment.
The olfactory receptor expressed on the HEK293 cells increases the intracellular cAMP amount by activating adenylate cyclase in conjugation with intracellular Gαs. In the measurement of odor response in this study, luciferase reporter gene assay for monitoring the increase of the intracellular cAMP amount as a luminescence value derived from a firefly luciferase gene (fluc2P-CRE-hygro) was employed. Besides, a fused Renilla luciferase (hRluc-CMV) gene was simultaneously transferred downstream of the CMV promoter, so as to be used as an internal standard for correcting the gene transfer efficiency or an error in the number of cells. For measuring the activity of the luciferase, Dual-Glo(™) Luciferase Assay System (Promega) was used, and the measurement was performed in accordance with the operation instruction of the product. Under each of various stimulation conditions, a value fLuc/hRluc obtained by dividing a firefly luciferase-derived luminescence value by a Renilla luciferase-derived luminescence value was calculated. A value obtained by dividing a value fLuc/hRluc induced by stimulation with an odorous substance by a value fLuc/hRluc of a cell not stimulated with the odorous substance was obtained as fold increase, which was used as an index of the response intensity. A dose-response curve was analyzed using Graph Pad Prism.
The medium was removed from each of the cultures of the olfactory receptor expressing cells produced according to Reference Example 1, and an odorous substance (muscone, guaiacol or p-cresol) was added thereto. A DMEM medium (Nacalai) containing muscone or guaiacol was added to a 384-well plate containing the culture by 30 μL per well (to a final concentration of muscone of 100 μM and of guaiacol of 1 mM). Alternatively, a CD293 medium (Invitrogen) containing p-cresol was added to a 96-well plate containing the culture by 75 μL per well (to a final concentration of 1 mM). […]

[2] = tested on: odor of p-cresol; experiment: Sensory test of cross-adaptation, target odor p-cresol; assay type: in vivo, human; settings: panelists, test sample smelled before target sample, FIG. 6C
Procedure: The cross-adaptation effect induced by the odorous substance evaluated in Example 2 was estimated by a sensory test. A glass bottle (No. 11, manufactured by Hakuyo Glass Co., Ltd., capacity: 110 mL) was charged with a target odorous substance to be used as a target sample. As the target odorous substance, muscone, guaiacol or p-cresol was used. As the muscone, a cotton ball soaked with 1 mg of muscone was used. As the guaiacol and p-cresol, 1 mL of a mineral oil (Sigma-Aldrich) solution in a concentration of 10 ppm was used. In a similar manner, a glass bottle was charged with a test substance to be used as a test sample. As the test sample, 5 mg of an ethyl vanillin powder, or 1 mL of a mineral oil (Sigma-Aldrich) solution of p-cresyl acetate, p-cresyl isobutyrate or p-methyl quinoline prepared to a concentration of 1,000 ppm was used.
The sensory test was performed by a single blind method by five to eight panelists. The target sample was first presented to each panelist, who was caused to replay on the odor intensity. Next, the test sample was presented for 2 minutes or until the odor could not be perceived. Thereafter, the target sample was presented again, and the panelist was caused to replay on the odor intensity. This series of operations was defined as one set, and the sensory test was carried out with four sets per day per panelist set as the upper limit. A recess of at least 10 minutes or more was provided between the sets.
The panelist was caused to plot the estimated intensity of the target odor on a straight line of 9.5 cm with both ends respectively provided with criteria “No odor” and “Strong odor”. A distance (A) between the position of the target odor intensity plotted in the initial estimate and the end of “No odor”, and a distance (B) between the position of the target odor intensity plotted in the second estimate and the end of “No odor” were obtained, so as to calculate percentage odor intensity of the initial estimate [B/A*100−100]. As this value is smaller, the intensity of the target odor perceived in the second estimate is suppressed stronger as compared with that in the initial estimate, namely, stronger cross-adaptation is induced. If this value is −100%, it means that the target odor was not perceived at all in the second estimate.

[3] = tested on: odor of p-cresyl isobutyrate; experiment: Sensory test of cross-adaptation, target odor p-cresyl isobutyrate; assay type: in vivo, human; settings: panelists
[4] = tested on: odor of p-methyl quinoline; experiment: Sensory test of cross-adaptation, target odor p-methyl quinoline; assay type: in vivo, human; settings: panelists

C[C@@H]1CCCCCCCCCCCCC(=O)C1 [muscone, (R)-3-methyl-1-cyclopentadecanone]
activation of OR5AN1 response (fold increase) ([1]; 0.3 μM to 100 μM, vs Mock cells, FIG. 3): activating the response | responsiveness of OR5AN1 among 370 olfactory receptors (response intensity, fold increase) ([1]; screen of 370 human olfactory receptors, muscone 100 μM, FIG. 1): highest responsiveness | cross-adaptation of p-cresol odor induced by test substance [2]: did not induce the cross-adaptation | cross-adaptation of p-cresyl isobutyrate odor induced by test substance [3]: did not induce the cross-adaptation | cross-adaptation of p-methyl quinoline odor induced by test substance [4]: did not induce the cross-adaptation
